Test results published in patent publication US20180028601A1, “METHODS AND COMPOSITIONS FOR TREATING CANCER” (Yissum Research Development Company of The Hebrew …, priority 2016, published 2018).

Columns and labels:
[1] = system: human colon adenocarcinoma sections; test: Binding of fluorescently labeled F. nucleatum to human colon tissue sections / TMA; settings: 300 mM GalNAc
Protocol: Tissue Microarray Analysis—Colon cancer tissue array CO2601 (US Biomax) and array CO809a (US Biomax) were used in these studies. Details about the cases for each core on the array are available on the US Biomax Web site.
Immunofluorescence and Section Preparation—Fixed tissue sections were stained with H&E or processed for immunofluorescence microscopy. Sections were blocked and incubated with fluorescent PNA or fluorescent bacteria and imaging analysis are as described in Abed et al. 2016. ibid, Supplemental Experimental Procedures. GalNAc removal was performed by incubating sections with O-glycanase.; see Supplemental Experimental Procedures for experimental details.

erythrocytes = test: Hemagglutination assay; type: cell-based; settings: bacteria preincubated with 25 mM GalNAc
Protocol: Hemagglutination Assays—Hemagglutination assays were performed as previously described (Coppenhagen-Glazer et al., 2015, ibid). For inhibition assays, washed bacteria were preincubated with 25 mM GalNAc (Sigma-Aldrich) for 30 min prior to incubation with erythrocytes.

[2] = system: high and intermediate Gal-GalNAc-expressing CRC cell lines (HCT116, CT26, RKO); test: Flow cytometry attachment and GalNAc competition assays, high and intermediate Gal-GalNAc-expressing lines; type: cell-based, human and mouse; settings: p=0.04167
Protocol: Flow Cytometry and Competition Assays—FITC-labeled F. nucleatum were incubated with cells at a MOI of 10 for 30 min at room temperature. FITC-labeled PNA lectin (Sigma-Aldrich) was incubated at a final concentration of 140 nM per 2.5×10^5 cells. For competition experiments, bacteria or PNA was incubated with GalNAc (concentration range 0, 50, 100, and 300 mM) for 30 min prior to incubation with cells. Flow cytometry methods and analysis are as described in Abed et al. 2016. ibid, Supplemental Experimental Procedures.

CC(=O)N[C@H]1C(O)O[C@H](CO)[C@H](O)[C@@H]1O (stereo partly shown) [GalNAc]
inhibition of binding of F. nucleatum ATCC 23726 to human CRC tissue sections [1]: inhibits binding
inhibition of CTI-2 hemagglutination (erythrocytes): inhibited
inhibition of F. nucleatum ATCC 23726 binding to cells ([2]; GalNAc 0, 50, 100, 300 mM): inhibited by GalNAc in a statistically significant, dose-dependent manner
inhibition of CTI-2 binding to cells ([2]; soluble GalNAc 0-300 mM): inhibited by the addition of soluble GalNAc in a dose-dependent manner
